# Molecular target: T1, USP28 (Homo sapiens, UniProt Q96RU2)
# T1 sequence (Q96RU2 1-1077): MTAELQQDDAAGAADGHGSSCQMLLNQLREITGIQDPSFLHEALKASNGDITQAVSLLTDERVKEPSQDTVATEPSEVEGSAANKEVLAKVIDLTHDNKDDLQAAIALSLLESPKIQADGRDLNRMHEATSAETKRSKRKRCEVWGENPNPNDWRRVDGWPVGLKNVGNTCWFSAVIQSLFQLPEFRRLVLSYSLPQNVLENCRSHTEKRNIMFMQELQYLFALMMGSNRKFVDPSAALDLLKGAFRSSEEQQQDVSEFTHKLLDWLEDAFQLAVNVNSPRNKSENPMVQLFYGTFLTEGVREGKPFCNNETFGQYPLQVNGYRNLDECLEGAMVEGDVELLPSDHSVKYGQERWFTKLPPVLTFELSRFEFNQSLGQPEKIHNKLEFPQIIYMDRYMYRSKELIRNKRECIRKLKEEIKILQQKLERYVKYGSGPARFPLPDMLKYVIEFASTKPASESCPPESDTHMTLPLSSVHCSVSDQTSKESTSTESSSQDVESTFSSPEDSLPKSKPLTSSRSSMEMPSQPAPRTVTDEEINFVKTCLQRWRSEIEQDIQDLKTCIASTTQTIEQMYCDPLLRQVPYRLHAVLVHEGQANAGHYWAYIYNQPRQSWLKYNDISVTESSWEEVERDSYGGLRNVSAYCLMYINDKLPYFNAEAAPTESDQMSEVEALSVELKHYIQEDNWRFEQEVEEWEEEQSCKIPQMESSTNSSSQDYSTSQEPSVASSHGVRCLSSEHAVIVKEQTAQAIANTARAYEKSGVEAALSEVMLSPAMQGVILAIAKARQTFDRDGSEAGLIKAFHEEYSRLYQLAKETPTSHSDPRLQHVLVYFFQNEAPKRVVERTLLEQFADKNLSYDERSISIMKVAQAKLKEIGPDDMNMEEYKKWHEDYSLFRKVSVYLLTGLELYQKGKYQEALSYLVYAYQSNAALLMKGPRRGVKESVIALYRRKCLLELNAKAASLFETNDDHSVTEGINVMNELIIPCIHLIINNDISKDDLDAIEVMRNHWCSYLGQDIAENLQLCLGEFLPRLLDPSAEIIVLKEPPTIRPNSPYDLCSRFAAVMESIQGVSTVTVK
# Assay: Ubiquitin-Rhodamine110 assay
# Assay type: biochemical
# Conditions: USP28 at 1 nM, 30 minutes pre-incubation at room temperature, Ubiquitin-Rho110 substrate 125 nM
# Description: USP28 (at 1 nM) was pre-incubated with different concentrations of inhibitors or DMSO as a control in 50 mM Tris pH 8, 50 mM NaCl, 0.002% Tween-20, 5 mM DTT. Compounds and protein were incubated for 30 minutes at room temperature prior to the addition of Ubiquitin-Rho110 (Boston Biochem) substrate for a final concentration of 125 nM. The initial rate of the reaction was measured by collecting fluorescence data at one-minute interval over 30-minute period using a Clariostar® fluorescence plate reader at excitation and emission wavelength of 485 nm and 535 nm, respectively. The calculated initial rate values were plotted against inhibitor concentrations to determine IC50s. All the experimental data were plotted using GraphPad Prism®.
row,IC50,Structure (SMILES)
1,> 100 µM,CN(C)S(=O)(=O)c1ccc2[nH]c(Cc3ccc(Cl)c(Cl)c3)nc2c1 [Compound 27]
2,> 100 µM,Cc1ccc(S(=O)(=O)N(C)C)cc1NC(=O)CCc1ccccc1 [Compound 7]
3,> 100 µM,CN(C)S(=O)(=O)c1ccc(NCc2ccccc2)c(NC(=O)Cc2ccc(Cl)c(Cl)c2)c1 [Compound 19]
4,< 1 µM,Cc1ccc(S(=O)(=O)N(C)C)cc1C(=O)NCc1ccc(Cl)c(Cl)c1 [Compound 21]
5,< 1 µM,Cc1ccc(S(=O)(=O)Nc2ccccc2)cc1NC(=O)Cc1ccc2ccccc2c1 [Compound 23]
6,< 1 µM,Cc1ccc(S(=O)(=O)NCc2ccccc2)cc1NC(=O)Cc1ccc(Cl)c(Cl)c1 [Compound 14]
7,1 to 10 µM,Cc1ccc(S(=O)(=O)N(C)C)cc1NC(=O)CN1CCN(C)CC1 [Compound 10]
8,1 to 10 µM,Cc1ccc(S(=O)(=O)N(C)C)cc1NC(=O)Cc1ccccc1 [Compound 2]
9,1 to 10 µM,Cc1ccc(C(=O)NCc2ccccc2)cc1NC(=O)Cc1ccc(Cl)c(Cl)c1 [Compound 22]
10,1 to 10 µM,CCN(CC)S(=O)(=O)c1cccc(NC(=O)Cc2ccc(Cl)c(Cl)c2)c1 [Compound 8]
11,< 1 µM,Cc1ccc(S(=O)(=O)N(C)C)cc1NC(=O)Cc1ccc(Cl)c(Cl)c1 [Compound 1]
12,10 to 100 µM,CS(=O)(=O)c1cccc(NC(=O)Cc2ccc(Cl)c(Cl)c2)c1 [Compound 6]
13,> 100 µM,Cc1ccc(S(=O)(=O)N(C)C)cc1NC(=O)Cc1ccc(O)cc1 [Compound 5]
14,1 to 10 µM,Cc1ccc(S(=O)(=O)Nc2ccc(-n3ccnc3)cc2)cc1NC(=O)Cc1ccc(Cl)c(Cl)c1 [Compound 29]
15,10 to 100 µM,Cc1ccc(S(=O)(=O)N(C)C)cc1NC(=O)Cc1ccc([N+](=O)[O-])cc1 [Compound 4]
16,10 to 100 µM,CN(C)S(=O)(=O)c1cccc(NC(=O)Cc2ccc(Cl)c(Cl)c2)c1 [Compound 13]
17,< 1 µM,Cc1ccc(S(=O)(=O)Nc2ccccc2)cc1NC(=O)Cc1ccc(Cl)c(Cl)c1 [Compound 12]
18,1 to 10 µM,Cc1ccc(S(=O)(=O)N(C)C)cc1NC(=O)Cc1cccc(C(F)(F)F)c1 [Compound 3]
19,< 1 µM,Cc1ccc(S(=O)(=O)N(C)C)cc1C(=O)NCc1cccc(Cl)c1 [Compound 20]
20,> 100 µM,Cc1ccc(S(=O)(=O)N(C)C)cc1NC(=O)Cc1ccc(-c2ccccc2)cc1 [Compound 9]
21,< 1 µM,Cc1ccc(S(=O)(=O)Nc2ccc(N3CCN(C)CC3)cc2)cc1NC(=O)Cc1ccc(Cl)c(Cl)c1 [Compound 15]
22,< 1 µM,Cc1ccc(S(=O)(=O)NCc2ccccc2)cc1NC(=O)c1ccc(Cl)c(Cl)c1 [Compound 24]
23,< 1 µM,CN(C)S(=O)(=O)c1ccc(Cl)c(NC(=O)Cc2ccc(Cl)c(Cl)c2)c1 [Compound 16]
24,10 to 100 µM,CN(C)S(=O)(=O)c1ccc(OC(F)(F)F)c(NC(=O)Cc2ccc(Cl)c(Cl)c2)c1 [Compound 18]
25,1 to 10 µM,CCc1ccc(S(=O)(=O)N(C)C)cc1NC(=O)Cc1ccc(Cl)c(Cl)c1 [Compound 17]
26,< 1 µM,Cc1ccc(S(=O)(=O)N2CCCCC2)cc1NC(=O)Cc1ccc(Cl)c(Cl)c1 [Compound 11]

# Molecular target: T1, USP28
# Assay: Competitive activity-based protein profiling (target engagement, Ub-VME probe, Western blot)
# Assay type: binding
# Conditions: K562 cells lysed, treated with compound for 1 h, then incubated with Ub-VME
# Description: K562 cells were lysed and treated with indicated concentrations of compound 1 for 1 h followed by incubation with Ub-VME. Ub-VME covalently modifies USP28, resulting in higher MW band observed by Western blot.
# Cells were pelleted, washed with PBS buffer, lysed on ice (20 mM Tris pH 8, 150 mM NaCl, 1% NP-40, 10% glycerol, 1 mM TCEP, phosphatase inhibitor cocktails (Sigma P5726 and Calbiochem 524624), and protease inhibitors (pepstatin, leupeptin, PMSF, and aprotinin), and clarified by centrifugation. Protein content was quantified by BCA and diluted to 2 mg/mL in lysis buffer. Compounds were added at desired concentrations and incubated at room temperature for […]. Samples were then supplemented with 2 uM […] and incubated at room temperature with shaking for 15 minutes. Reactions were quenched with 4×LDS sample buffer (Thermo Fisher B0007) supplemented with 10% BME, vortexed vigorously, and heated to 95° C. for 5 minutes. Samples were resolved by SDS-PAGE and analyzed by Western blot with the indicated antibodies.
row,Structure (SMILES),"labeling of USP28 by covalent Ub-VME probe (Western blot, FIG. 2)"
1,Cc1ccc(S(=O)(=O)N(C)C)cc1NC(=O)Cc1ccc(Cl)c(Cl)c1 [Compound 1],prevents labeling of USP28 by the covalent Ub-VME probe

# — patent US12668571B2, “Substituted 3-amino-4-methylbenzenesulfonamides as small molecule inhibitors of ubiquitin-specific protease 28” (Dana-Farber Cancer Institute, Inc., priority 2020, dated 2026)
